The values below come from ChEMBL document CHEMBL4715742, “Design, synthesis and cytotoxic activities of novel 2,5-diketopiperazine derivatives” (Eur J Med Chem, 2016).

In assay [1] the test system is U-937. As to the kind of experiment: Induction of apoptosis in human U-937 cells assessed as early apoptotic cells at 0.5 uM measured after 48 hrs by annexinV/FITC-propidium iodide staining based flow cytometry (reference value: 1.78 to 1.88 %). Type of assay: functional. In general terms: In flow cytometry, cells or beads pass a laser one at a time.
The subject of a further assay is DU-145. The assay can be described thus: Cytotoxicity against human DU-145 cells assessed as reduction in cell viability measured after 72 hrs by CCK8 assay. In kind it is functional, cell-based. Particulars: Homo sapiens, DU-145, 72 h; read-out: IC50. In general terms: Formazan colour is commonly taken as a measure of viable cells.
The test system of the next assay is HT-29. As to the kind of experiment: Cytotoxicity against human HT-29 cells assessed as reduction in cell viability measured after 72 hrs by CCK8 assay. Type of assay: functional, cell-based. Particulars: Homo sapiens, HT-29, 72 h; read-out: IC50.
For assay [2], the system named is U-937. The assay can be described thus: Induction of apoptosis in human U-937 cells assessed as late apoptotic cells at 1 uM measured after 24 hrs by annexinV/FITC-propidium iodide staining based flow cytometry (reference value: 2.18 to 2.22 %). Type of assay: functional.
Assay [3] concerns U-937. The assay can be described thus: Cytotoxicity against human U-937 cells assessed as reduction in cell viability at 0.37 to 3.3 uM by CCK8 assay. Type of assay: functional, cell-based. The settings on record: dose 0.37-3.3 µM, TDE = time-dependent effect.
In assay [4] the test system is U-937. The assay can be described thus: Induction of apoptosis in human U-937 cells assessed as necrotic cells at 1 uM measured after 48 hrs by annexinV/FITC-propidium iodide staining based flow cytometry (reference value: 0.794 to 0.955 %). In kind it is functional.
For assay [5], the system named is U-937. The assay can be described thus: Induction of apoptosis in human U-937 cells assessed as viable cells at 1 uM measured after 24 hrs by annexinV/FITC-propidium iodide staining based flow cytometry (reference value: 95 to 95.1 %). The settings on record: read-out: Activity. Type of assay: functional.
Assay [6] has as its system U-937. As to the kind of experiment: Induction of apoptosis in human U-937 cells assessed as viable cells at 2 uM measured after 48 hrs by annexinV/FITC-propidium iodide staining based flow cytometry (reference value: 93.7 to 94.2 %). Particulars: read-out: Activity. Type of assay: functional.
A further assay relates to MCF7. As to the kind of experiment: Cytotoxicity against human MCF7 cells assessed as reduction in cell viability measured after 72 hrs by CCK8 assay. In kind it is functional, cell-based. Particulars: Homo sapiens, MCF7, 72 h; read-out: IC50.
The subject of assay [7] is U-937. The assay can be described thus: Cytotoxicity against human U-937 cells assessed as cell viability at 0.37 uM measured after 72 hrs by CCK8 assay relative to control. Type of assay: functional. Particulars: read-out: Activity.
For assay [8], the system named is U-937. The assay can be described thus: Cytotoxicity against human U-937 cells assessed as cell viability at 0.37 uM measured after 24 hrs by CCK8 assay relative to control. In kind it is functional. The settings on record: read-out: Activity.
For assay [9], the system named is U-937. The assay can be described thus: Cytotoxicity against human U-937 cells assessed as cell viability at 1.1 uM measured after 48 hrs by CCK8 assay relative to control. Type of assay: functional. The settings on record: read-out: Activity.
Assay [10] deals with U-937. As to the kind of experiment: Induction of apoptosis in human U-937 cells assessed as early apoptotic cells at 2 uM measured after 24 hrs by annexinV/FITC-propidium iodide staining based flow cytometry (reference value: 1.28 to 1.68 %). Type of assay: functional.
Assay [11] concerns U-937. The assay can be described thus: Cytotoxicity against human U-937 cells assessed as cell viability at 0.37 uM measured after 48 hrs by CCK8 assay relative to control. Type of assay: functional. The settings on record: read-out: Activity.
Assay [12] concerns U-937. The assay can be described thus: Induction of apoptosis in human U-937 cells assessed as late apoptotic cells at 0.5 uM measured after 24 hrs by annexinV/FITC-propidium iodide staining based flow cytometry (reference value: 2.18 to 2.22 %). In kind it is functional.
Assay [13] relates to U-937. The assay can be described thus: Induction of apoptosis in human U-937 cells assessed as early apoptotic cells at 1 uM measured after 24 hrs by annexinV/FITC-propidium iodide staining based flow cytometry (reference value: 1.28 to 1.68 %). Type of assay: functional.
Assay [14] concerns U-937. The assay can be described thus: Induction of apoptosis in human U-937 cells assessed as viable cells at 0.5 uM measured after 24 hrs by annexinV/FITC-propidium iodide staining based flow cytometry (reference value: 95 to 95.1 %). Type of assay: functional. Particulars: read-out: Activity.
Another assay concerns HL-60. The assay can be described thus: Cytotoxicity against human HL-60 cells assessed as reduction in cell viability measured after 72 hrs by CCK8 assay. The settings on record: Homo sapiens, HL-60, 72 h; read-out: IC50. In kind it is functional, cell-based.
Assay [15] relates to U-937. As to the kind of experiment: Induction of apoptosis in human U-937 cells assessed as apoptotic ratio at 0.5 uM measured after 24 hrs by annexinV/FITC-propidium iodide staining based flow cytometry (reference value: 3.7 +/- 0.3 %). Type of assay: functional.
The subject of a further assay is K562. The assay can be described thus: Cytotoxicity against human K562 cells assessed as cell viability at 3.3 uM measured after 24 hrs by CCK8 assay relative to control. In kind it is functional. Particulars: read-out: Activity.
In assay [16] the test system is U-937. As to the kind of experiment: Induction of apoptosis in human U-937 cells assessed as viable cells at 1 uM measured after 48 hrs by annexinV/FITC-propidium iodide staining based flow cytometry (reference value: 93.7 to 94.2 %). The settings on record: read-out: Activity. In kind it is functional.
The test system of another assay is HeLa. As to the kind of experiment: Cytotoxicity against human HeLa cells assessed as reduction in cell viability measured after 72 hrs by CCK8 assay. Type of assay: functional, cell-based. The settings on record: Homo sapiens, HeLa, 72 h; read-out: IC50.

`C=CCn1c(=O)/c(=C/CCCC)[nH]c(=O)/c1=C/c1ccc(OC)cc1`: the Activity with U-937 [1] is 7.77%; with U-937 [2], 8.23%; in the assay on U-937 [3], “Tde”; in the assay on U-937 [4], 1.04%; in the assay on U-937 [10], 9.66%; with U-937 [12], 6.11%. Also, the Activity came to 7.63% in the assay with U-937 [13] and 10.4% with U-937 [15]. The IC50 stood at 1700 nM with DU-145; 1200 nM in the assay with HT-29; 1900 nM in the assay on MCF7; 900 nM in the assay with HL-60; 900 nM with HeLa. Further, the viability at 1 µM worked out at 82.6% with U-937 [5] and 73.1% in the assay with U-937 [16]. In addition, the viability at 2 µM in the assay on U-937 [6] came out at 52.7%. Moreover, the viability at 0.37 µM amounted to 58.7% in the assay on U-937 [7], 70.5% with U-937 [8] and 74.9% in the assay with U-937 [11]. The viability at 1.1 µM in the assay with U-937 [9] amounted to 8.8%. Further, in the assay on U-937 [14], the viability at 0.5 µM amounted to 88.4%. The viability at 3.3 µM in the assay on K562 was 31%.

The term IC50 denotes the midpoint of a concentration-inhibition curve.
